Article PMC7933930, “Development of a small molecule that corrects misfolding and increases secretion of Z α1‐antitrypsin” (EMBO Molecular Medicine, 2021)

What was measured:
[1] = biological target: Dopamine D2 (Homo sapiens, UniProt P14416); test: Off‐target panel: Dopamine D2; type: cell-based
Experimental: GSK716 selectivity and PK properties were profiled in order to investigate the suitability of GSK716 for progression into in vivo studies and the potential for taking it forward as a clinical candidate for testing in humans. Since GSK716 results in loss of inhibitory activity of α1‐antitrypsin, the effect of the compound was assessed on other closely related serpins. […] Furthermore, there were no off‐target effects in a panel of assays considered predictive of known safety liabilities that precluded further development of GSK716 (Table EV1).

[2] = test system: Z α1‐antitrypsin polymers in CHO‐TET‐ON‐Z‐A1AT cells; test: Intracellular Z α1‐antitrypsin polymer formation in CHO‐TET‐ON‐Z‐A1AT cells (2C1 staining); type: cell-based
Experimental: The ability of GSK716 to block Z α1‐antitrypsin polymerisation in the ER during folding was assessed by adding GSK716 to CHO‐TET‐ON‐Z‐A1AT cells (Ordóñez et al, 2013) with simultaneous induction of Z α1‐antitrypsin expression using doxycycline. […] Similar potency between the effects on secretion and polymerisation was observed throughout members of the lead series supporting the hypothesis that these effects are caused by the same pharmacological mode of action.
Figure 2 GSK716 inhibits polymerisation of Z α1‐antitrypsin in cell models of disease • A GSK716 was added to CHO‐TET‐ON‐Z‐A1AT cells (Ordóñez et al, 2013) with simultaneous induction of Z α1‐antitrypsin expression using doxycycline, and polymer load was quantified with the 2C1 monoclonal antibody that is specific to pathological polymers of α1‐antitrypsin (Miranda et al, 2010). […] For every time point, NP‐40‐soluble and NP‐40‐insoluble fractions were separated and immunoprecipitated with the 2C1 mAb and resolved by 4–12% w/v SDS–PAGE and α1‐antitrypsin detected by immunoblotting. […] Cell viability was measured by Cell Counting Kit‐8. […] Samples were resolved by 4–12% w/v acrylamide SDS–PAGE and detected by autoradiography. • H The graphs show the effect of GSK716 on intracellular and extracellular Z α1‐antitrypsin (mean ± SEM, n = 2). […]

[3] = biological target: T1, plasma‐purified wild‐type M α1‐antitrypsin (Homo sapiens, UniProt P01009); test: Competition binding assay with Alexa488‐labelled analogue of GSK716, M α1‐antitrypsin
T1 construct: purified from the plasma of M (wild‐type) and Z α1‐antitrypsin homozygotes; from tissue; host or cells: human plasma of M (wild-type) homozygotes
T1 sequence (P01009 25-418): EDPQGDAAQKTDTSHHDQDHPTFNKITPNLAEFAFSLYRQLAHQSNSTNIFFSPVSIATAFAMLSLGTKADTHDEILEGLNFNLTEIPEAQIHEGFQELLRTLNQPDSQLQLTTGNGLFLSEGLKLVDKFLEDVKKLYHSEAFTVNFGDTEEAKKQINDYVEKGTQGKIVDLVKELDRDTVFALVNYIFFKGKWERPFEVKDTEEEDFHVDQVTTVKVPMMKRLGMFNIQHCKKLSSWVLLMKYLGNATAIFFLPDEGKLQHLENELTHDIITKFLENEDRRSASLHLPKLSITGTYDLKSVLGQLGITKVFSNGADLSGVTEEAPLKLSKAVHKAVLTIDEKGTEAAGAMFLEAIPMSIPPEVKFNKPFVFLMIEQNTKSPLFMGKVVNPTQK
Description: The shape of the curves and native mass spectrometry (not shown) are consistent with a single high‐affinity compound binding site. No binding of the fluorescent derivative to polymers of Z α1‐antitrypsin was observed, indicating conformational selectivity for the monomeric protein (Fig 1D). The rate of interaction of the compound with the target was monitored through changes in intrinsic tryptophan fluorescence (Dafforn et al, 1999); this property was used to determine the second‐order association rate constants for GSK716 binding to Z (4.1 × 10^4 M^−1 s^−1) and M α1‐antitrypsin (2.1 × 10^2 M^−1 s^−1; Fig 1E and F). […] Therefore, the selectivity of the compound for Z over M α1‐antitrypsin is dominated by the difference in the rate of association rather than dissociation.
Kinetic parameters of GSK716 binding to M, Z, S (Glu264Val) and Baghdad (Ala336Pro) (Haq et al, 2016) α1‐antitrypsin were measured by detecting intrinsic tryptophan fluorescence of the protein (excitation at 280 nm and detection of emission at 320 nm) on a stopped flow apparatus (Applied Photophysics) (Kim & Yu, 1996; Dafforn et al, 1999). […]

Dopamine D2, sequence (P14416 whole entry): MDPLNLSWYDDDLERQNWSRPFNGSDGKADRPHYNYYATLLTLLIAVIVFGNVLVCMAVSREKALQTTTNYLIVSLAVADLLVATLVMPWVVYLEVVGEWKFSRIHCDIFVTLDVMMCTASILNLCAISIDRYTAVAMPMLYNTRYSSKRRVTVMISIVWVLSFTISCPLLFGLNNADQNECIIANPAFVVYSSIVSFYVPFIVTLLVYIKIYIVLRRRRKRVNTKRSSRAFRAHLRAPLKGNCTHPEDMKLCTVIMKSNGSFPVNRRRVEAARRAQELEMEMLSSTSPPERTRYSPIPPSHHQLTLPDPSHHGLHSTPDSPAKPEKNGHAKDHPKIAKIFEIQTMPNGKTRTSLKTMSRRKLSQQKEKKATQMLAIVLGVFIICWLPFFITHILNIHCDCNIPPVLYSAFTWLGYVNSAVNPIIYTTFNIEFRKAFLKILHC

CCC[C@@H](NC(=O)c1cccc2c1CC(=O)N2)[C@@H](O)c1cccc(F)c1C [GSK716]
EC50 [1]: > 100000 nM
IC50 [1]: > 100000 nM
intracellular formation of Z α1‐antitrypsin polymers in comparison with controls [2]: completely blocked
IC50 ([2]; doxycycline induction, n = 71, read-out: mean pIC50, intracellular formation of Z α1‐antitrypsin polymers (converted)): 501 nM
selectivity: affinity for Z over M α1‐antitrypsin [3]: 50 fold
Kd ([3]; plasma‐purified wild‐type M α1‐antitrypsin, n = 10, mean ± SD, read-out: mean pKD (converted)): 158 nM
